Values quoted from earlier work, collected in patent publication US20030216458A1, “Combination therapy for the treatment of migraine” (priority 1999, published 2003).

Details: anaesthetized dog

## CNS(=O)(=O)Cc1ccc2[nH]cc(CCN(C)C)c2c1 [Sumatriptan]
  effect on carotid vascular resistance: selective increase in carotid vascular resistance
